{"source": "patent US20160345827A1", "about": "“TWO-PHOTON MICROSCOPY IMAGING RETINA CELL DAMAGE” (POLGENIX, INC., priority 2014, published 2016)", "key": {"Abca4^−/−Rdh8^−/− mice": {"test_system": "Abca4^−/−Rdh8^−/− mice", "assay": "light-induced retinal degeneration in Abca4^−/−Rdh8^−/− mice, TPM and histology at day 7", "details": "for light-induced retinal degeneration (retinal histology): Ret-NH2 1 mg per mouse oral gavage 16 h before, or Apo 1 mg/mouse i.p. 30 min before 10,000 lx light for 60 min, day 7"}, "[1]": {"test_system": "Abca4^−/−Rdh8^−/− (Dko) retinal cultures", "assay": "ex vivo Dko retinal cultures incubated with atRAL (morphology, LDH)", "type": "cell-based", "details": "6 h at 37° C; for effect on atRAL-induced cell death rate (LDH assay): Ret-NH2 30 μM or Apo 300 μM together with 30 μM atRAL", "procedure": "FIGS. 11(A-B) illustrate images showing retinal degeneration is induced by atRAL in ex vivo Dko retinal cultures. Retinas were removed from the eyecups of 4-wk-old Abca4^−/−Rdh8^−/− (Dko) mice and cultured for 16 h at 37° C. Retinas were then incubated further with/without 30 μM of atRAL in the presence/absence of experimental drugs for 6 h at 37° C. Vehicle (DMSO), retinylamine (Ret-NH2) at 30 μM, or apocynin (Apo) at 300 μM was applied together with atRAL. (A) Retinal morphology was examined after incubation with atRAL. […] Bars indicate SD (n=3). *P<0.05.\n(§1) Eyes were enucleated, washed with a penicillin-streptomycin solution (Sigma), and rinsed with Hank's balanced salt solution (HyClone). Prepared mouse eyecups were flattened by creating retinal flaps. Flattened retinas were transferred onto filter paper and the retina was gently peeled off from the RPE/choroid. All these procedures were performed under a surgical microscope. Each retina on filter paper was placed into a well of a 12-well plate filled with 0.5 mL of DMEM (HyClone) with 10% FBS and incubated for 16 h at 37° C. Retinas then were washed twice with 0.5 mL of fresh DMEM containing 10% FBS and finally incubated again with/without 30 μM of atRAL for 6 h at 37° C. A lactate dehydrogenase (LDH) assay was performed to determine cellular death rates with a LDH activity assay kit (BioVision). The percentage of cytotoxicity was calculated as [(a retina with atRAL—a retina without atRAL)/(lysis control—a retina without atRAL)]×100."}, "[2]": {"test_system": "retinal explant tissue cultures", "type": "cell-based", "details": "6 h at 37° C, WT retinas; for protection of retinal morphology against atRAL-induced damage: Ret-NH2 30 μM or apocynin 300 μM together with 30 μM atRAL; for prevention of atRAL-induced photoreceptor apoptosis (TUNEL staining): retinylamine 30 μM or apocynin 300 μM together with 30 μM atRAL", "procedure": "FIGS. 6(A-B) illustrate images and a plot showing retinal degeneration is induced by atRAL in ex vivo retinal cultures. Retinas were removed from the eyecups of 4-wk-old C57BL/6J mice and cultured for 16 h at 37° C. Then retinas were incubated further with/without 30 μM of atRAL in the presence/absence of experimental drugs for 6 h at 37° C. Vehicle (DMSO), retinylamine (Ret-NH2) at 30 μM, or apocynin (Apo) at 300 μM was applied, together with atRAL. (A) Retinal morphology was examined after incubation with atRAL and with and without drugs. […] (B) TUNEL staining was performed with the ApoTag Peroxidase in Situ Apoptosis Detection Kit. Counter nuclear staining was accomplished with methyl green. […] (D) Retinas were removed from eyecups of 4-wk-old C57BL/6J mice and cultured with or without 30 μM of atRAL for 24 h at 37° C. After incubation, retinas were washed twice with PBS and then examined by TPM. Spectra from photoreceptor outer segments are shown (Left) along with representative magnified images (Right). Spectra from retinas cultured with atRAL featured a broad maximum absorption at 600 nm.\nas §1\nThe primary cause of acute retinal degeneration after bright light exposure in Abca4^−/−Rdh8^−/− mice is the delayed clearance of atRAL from photoreceptors. […] Thus, to examine whether retinal tissue lacking RPE cells can display degenerative changes similar to those observed in in vivo, we performed ex vivo culture experiments with retinal explants coincubated with atRAL. Neural retinas were dissected from eyes of 4-wk-old WT mice, and incubated with 30 μM of atRAL in the presence of control vehicle, 30 μM of retinylamine or 300 μM of apocynin for 6 h at 37° C. […] Cell death rates were calculated by measuring lactate dehydrogenase released into tissue culture supernatants from dying cells."}, "[3]": {"test_system": "RPE of Abca4^−/−Rdh8^−/− (DKO) mice", "assay": "two-photon trans-pupil imaging of fluorescent granules in RPE after bright light", "details": "2 mg Ret-NH2 gavage 13 to 16 h prior to 10,000 lux for 60 min; ex vivo imaging 7 and 14 days after light", "excerpt": "All animal procedures and experiments were approved by the Institutional Animal Care and Use Committee at Case Western Reserve University and conformed to recommendations of both the American Veterinary Medical Association Panel on Euthanasia and the Association for Research in Vision and Ophthalmology. B6(Cg)-Tyrc-2J/J mice were purchased from The Jackson Laboratory. Abca4^−/−Rdh8^−/− (DKO) and Rpe65^−/− mice were generated and genotyped as previously described. Human opsinGFP fusion, knockin hrhoG/hrhoG mice, expressing human rhodopsinGFP in photoreceptor outer segments were kindly provided by Dr. John H. Wilson (Baylor College of Medicine). […]\nAfter treatment with Ret-NH2 the content of fluorescent retinyl esters increases in the eye as reported previously. […] For quantification of the impact of drug treatment, the same detector settings were used for mice that were treated and not treated with Ret-NH2. […]\nThe tunable, 690-1050 nm, Chameleon VisionS generated 75 fs laser pulses at 80 MHz pulse repetition frequency. […] In twophoton imaging, the excitation matters most because the emission fluorescence is generated only in the focal spot; therefore, it is critical to achieve a tightly focused excitation beam. […]"}, "retinoid cycle": {"test_system": "retinoid cycle", "assay": "retinoid cycle inhibition before light exposure, LC/MS metabolic profile of retina", "type": "in vivo", "details": "pretreatment of Abca4^−/−Rdh8^−/− mice several hours before light exposure", "procedure": "At day 3 after light exposure, mouse retinas were dissected and homogenized in 0.3 mL of ice-cold acetonitrile. Samples were vortexed for 30 s followed by centrifugation for 15 min at 16,000×g. Clear supernatants were collected and used directly for LC/MS analyses. Each retinal extract was injected onto a reverse-phase C18 Phenomenex HPLC column (250×4.60 mm; 5 μm) preequilibrated with 5% acetonitrile in water. […] Total ion chromatograms were analyzed with XCMS software available online at the Scripps Center for Metabolomics.\nFluorophores responsible for AF in the retina could be an indicator of global changes in the metabolic profile of this tissue. To evaluate and quantify these changes as well as determine whether they depend on a functional retinoid cycle, we used both genetically altered (Lrat^−/−) and pharmacologically treated (retinylamine) mice with metabolic profiles that were compared with light-exposed and dark-adapted Abca4^−/−Rdh8^−/− mice by using a LC/MS approach. […] To investigate the origin of these light-induced alterations, we first analyzed the metabolic profile of retinal samples isolated from light-exposed lecithin:retinol acyltransferase (LRAT)-deficient mice that cannot produce visual chromophore. […]"}, "[4]": {"details": "after treatment with Ret-NH2; diminished 7 days after treatment; cited from earlier work"}, "[5]": {"test_system": "RPE of wild type (WT) mice", "assay": "two-photon imaging of retinosomes in WT mouse RPE", "type": "in vivo", "details": "WT mice pre-treated with Ret-NH2, white light 5,000 lux before imaging, laser power reduced by 17%", "procedure": "To enhance the visibility of retinosomes, WT mice without any drug treatment or treated with Ret-NH2 were exposed to 5,000 lux of white light for 5-30 min, 1 to 3 h before imaging.\nTo assess the capabilities of our system to characterize the RPE and retina we imaged ex vivo eyes of mice with different genetic backgrounds. The brightest RPE images were obtained in Rpe65^−/− mice in response to 730 nm excitation (FIG. 17a). The brightly fluorescent granules correspond to enlarged retinosomes, which are a characteristic feature of the RPE only in Rpe65^−/− mice due to blockade of 11cisretinol synthesis. […] We also imaged and counted the neuronal nuclei in the ganglion cell layer at 0.6 mm eccentricity and found 2,500 nuclei per mm2 (FIG. 17d), which is smaller than previously reported about 7,000 per mm2 of combined ganglion and displaced amacrine cells in stained retina. This difference arises from: a) nuclei are free of fluorophores, and are only visible as dark structures against brighter cell bodies, which can lead to obstruction of the nuclei by axon bundles; b) not all the cell nuclei were at the same imaging depth; and c) the estimates of the area could be off by 40% because they were determined by comparing measurements of optic disk in en face TPM images to histological sections. […]"}}, "note": "Entries after “also recorded” stand apart in the source; their conditions may differ. Like-named read-outs stand apart in the source and are kept apart here."}
{"smiles": "COc1cc(C(C)=O)ccc1O", "note": "[apocynin]", "values": [{"measurement": "light-induced retinal degeneration (retinal histology)", "setting": "Abca4^−/−Rdh8^−/− mice", "value": "can be prevented; also recorded: conferred protection"}, {"measurement": "effect on atRAL-induced cell death rate (LDH assay)", "setting": "[1]; Dko retinas", "value": "reduced"}, {"measurement": "protection of retinal morphology against atRAL-induced damage", "setting": "[2]", "value": "protected the ONL and INL"}, {"measurement": "prevention of atRAL-induced photoreceptor apoptosis (TUNEL staining)", "setting": "[2]; listed as APO", "value": "protected the ONL and INL"}]}
{"smiles": "CC1=C(/C=C/C(C)=C/C=C/C(C)=C/C=O)C(C)(C)CCC1", "note": "[atRAL, all-trans-retinaldehyde]", "values": [{"measurement": "retinal morphology (ONL) after incubation with atRAL", "setting": "[1]; 30 μM atRAL with vehicle, Dko retinas", "value": "markedly disrupted"}, {"measurement": "retinal cell death (LDH assay) caused by atRAL", "setting": "[1]; 30 μM atRAL, Dko retinal culture supernatants", "value": "caused retinal cell death"}]}
{"smiles": "CC1=C(/C=C/C(C)=C/C=C/C(C)=C/CN)C(C)(C)CCC1", "note": "[retinylamine]", "values": [{"measurement": "RPE autofluorescence appearance by TPM", "setting": "Abca4^−/−Rdh8^−/− mice; 730 nm and 850 nm excitation, day 7 after light, Ret-NH2 1 mg oral gavage, Apo 1 mg i.p.", "value": "increased fluorescence of retinosomes"}, {"measurement": "light-induced retinal degeneration (retinal histology)", "setting": "Abca4^−/−Rdh8^−/− mice", "value": "can be prevented; also recorded: conferred protection"}, {"measurement": "accumulation of fluorescent granules in the RPE", "setting": "[3]", "value": "no deposits; also recorded: protects RPE"}, {"measurement": "regeneration of visual chromophore in the eye", "setting": "retinoid cycle", "value": "markedly reduced"}, {"measurement": "content of fluorescent retinyl esters in the eye", "setting": "[4]", "value": "increases"}, {"measurement": "visibility of retinosomes in RPE", "setting": "[5]", "value": "more clearly visible"}, {"measurement": "effect on atRAL-induced cell death rate (LDH assay)", "setting": "[1]; Dko retinas", "value": "reduced"}, {"measurement": "protection of retinal morphology against atRAL-induced damage", "setting": "[2]", "value": "protected the ONL and INL"}, {"measurement": "prevention of atRAL-induced photoreceptor apoptosis (TUNEL staining)", "setting": "[2]; listed as Ret-NH2", "value": "protected the ONL and INL"}]}
